Assay results published in ChEMBL document CHEMBL2074043, “Investigation of fractions present in the stem bark of Annickia kummeriae on their P-glycoprotein inhibitory pump activity” (Phytother Res, 2004).

Target: ATP-dependent translocase ABCB1 (Homo sapiens, UniProt P08183)
Test: TP_TRANSPORTER: increase in intracellular accumulation of rhodamine 6G in […] cell
Format: functional, cell-based

Sequence of ATP-dependent translocase ABCB1 (P08183 whole entry): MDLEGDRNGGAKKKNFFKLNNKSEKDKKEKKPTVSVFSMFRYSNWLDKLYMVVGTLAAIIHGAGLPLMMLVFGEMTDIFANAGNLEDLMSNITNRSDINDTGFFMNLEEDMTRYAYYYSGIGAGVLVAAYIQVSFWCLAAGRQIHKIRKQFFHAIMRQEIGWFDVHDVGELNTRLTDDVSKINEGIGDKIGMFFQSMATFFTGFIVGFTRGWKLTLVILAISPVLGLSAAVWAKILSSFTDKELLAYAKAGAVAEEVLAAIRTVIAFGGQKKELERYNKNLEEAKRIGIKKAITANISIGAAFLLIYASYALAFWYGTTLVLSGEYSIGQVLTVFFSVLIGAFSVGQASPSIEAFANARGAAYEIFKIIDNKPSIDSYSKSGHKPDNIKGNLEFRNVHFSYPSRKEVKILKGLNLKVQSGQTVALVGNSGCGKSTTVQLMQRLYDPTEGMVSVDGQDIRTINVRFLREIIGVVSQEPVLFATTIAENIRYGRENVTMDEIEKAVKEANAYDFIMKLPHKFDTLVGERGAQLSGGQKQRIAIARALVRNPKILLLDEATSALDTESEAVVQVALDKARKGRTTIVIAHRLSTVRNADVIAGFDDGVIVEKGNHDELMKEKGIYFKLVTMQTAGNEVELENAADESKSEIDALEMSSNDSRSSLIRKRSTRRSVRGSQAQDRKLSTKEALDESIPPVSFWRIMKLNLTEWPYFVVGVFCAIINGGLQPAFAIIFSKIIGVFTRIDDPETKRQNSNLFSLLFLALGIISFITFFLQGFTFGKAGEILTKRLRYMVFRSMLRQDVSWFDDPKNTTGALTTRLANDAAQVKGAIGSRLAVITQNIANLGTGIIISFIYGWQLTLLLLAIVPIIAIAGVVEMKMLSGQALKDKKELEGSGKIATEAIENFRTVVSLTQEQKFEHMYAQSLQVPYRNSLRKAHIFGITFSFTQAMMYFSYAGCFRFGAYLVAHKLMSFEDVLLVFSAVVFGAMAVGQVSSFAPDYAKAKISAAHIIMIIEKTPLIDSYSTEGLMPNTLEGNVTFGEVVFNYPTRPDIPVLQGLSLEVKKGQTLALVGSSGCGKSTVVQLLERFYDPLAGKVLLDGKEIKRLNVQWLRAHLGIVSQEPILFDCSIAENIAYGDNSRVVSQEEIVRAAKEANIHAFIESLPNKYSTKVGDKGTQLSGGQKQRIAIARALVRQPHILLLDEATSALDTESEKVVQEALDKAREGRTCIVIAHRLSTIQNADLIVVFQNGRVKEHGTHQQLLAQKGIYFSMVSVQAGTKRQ

Activity: inhibitor [+]
Substance: STEM BARK OF ANNICKIA KUMMERIAE EXTRACT
